Patent US4011390A, “Semi-synthetic aminocyclitol aminoglycoside antibiotics and methods for the preparation thereof” (Schering-Plough Corporation, priority 1974, dated 1977)
≈ marks a conversion by molar mass, not a printed value. Read-outs that look alike come from different tables or passages of the source.

Assays:
Bacillus subtilis [1] = assay: Disc test, Bauer-Kirby technique with 10 Mcg. discs; type: cell-based; settings: Bacillus subtilis, ATCC6633, strain ATCC 6633
Text: (§1) Disc Test Results (Replicate Tests) With The Mutamicins, Sisomicin and
(§2) Bauer-Kirby Technique^1 With 10 Mcg. Discs
(§3) ^1 Bauer, Kirby, Sherris and Turck, American Journal of Clinical

Escherichia coli [2] = assay: as above; type: cell-based; settings: Escherichia coli, read-out: Zone Size
Text: as §1, §2, §3

Klebsiella pneumoniae [3] = assay: as above; type: cell-based; settings: Klebsiella pneumoniae
Text: as §1, §2, §3

Providence 164 = assay: as above; type: cell-based; settings: strain 164
Text: as §1, §2, §3

Pseudomonas aeruginosa [4] = assay: as above; type: cell-based; settings: Pseudomonas aeruginosa
Text: as §1, §2, §3

Staphylococcus aureus [5] = assay: as above; type: cell-based; settings: Staphylococcus aureus
Text: as §1, §2, §3

Streptococcus pyogenes [6] = assay: as above; type: cell-based; settings: Streptococcus pyogenes
Text: as §1, §2, §3

Aspergillus niger = assay: MIC in Mueller-Hinton Broth pH 7.2; type: cell-based; settings: Mueller-Hinton Broth pH 7.2, read-out: MIC
Text: (§4) In vitro Activity of the Mutamicins and Sisomicin
(§5) MIC's in Mueller-Hinton Broth pH 7.2

Bacillus subtilis [7] = assay: MIC in Mueller-Hinton Broth pH 7.2; type: cell-based; settings: ATCC6633, strain ATCC 6633
Text: as §4, §5

Candida albicans = assay: MIC in Mueller-Hinton Broth pH 7.2; type: cell-based; settings: Mueller-Hinton Broth pH 7.2, read-out: MIC
Text: as §4, §5

Escherichia coli [8] = assay: MIC in Mueller-Hinton Broth pH 7.2; type: cell-based
Text: as §4, §5

Klebsiella pneumoniae [9] = assay: MIC in Mueller-Hinton Broth pH 7.2; type: cell-based
Text: as §4, §5

Proteus rettgeri = assay: MIC in Mueller-Hinton Broth pH 7.2; type: cell-based; settings: Providencia rettgeri; Mueller-Hinton Broth pH 7.2; read-out: MIC
Text: as §4, §5

Providence = assay: MIC in Mueller-Hinton Broth pH 7.2; type: cell-based; settings: strain (Genta. R.) 164
Text: as §4, §5

Pseudomonas aeruginosa [10] = assay: MIC in Mueller-Hinton Broth pH 7.2; type: cell-based
Text: as §4, §5

Salmonella typhimurium = assay: MIC in Mueller-Hinton Broth pH 7.2; type: cell-based; settings: Salmonella enterica, strain B
Text: as §4, §5

Serratia = assay: MIC in Mueller-Hinton Broth pH 7.2; type: cell-based; settings: strain 127, Mueller-Hinton Broth pH 7.2, read-out: MIC
Text: as §4, §5

Staphylococcus aureus [11] = assay: MIC in Mueller-Hinton Broth pH 7.2; type: cell-based
Text: as §4, §5

Streptococcus pyogenes [12] = assay: MIC in Mueller-Hinton Broth pH 7.2; type: cell-based
Text: as §4, §5

Trichophyton rubrum = assay: MIC in Mueller-Hinton Broth pH 7.2; type: cell-based; settings: Mueller-Hinton Broth pH 7.2, read-out: MIC
Text: as §4, §5

Escherichia coli [13] = assay: Protection Tests in Mice; type: in vivo
Text: (§6) In vivo Activity of the Mutamicin 1 and Sisomicin
(§7) Protection Tests in Mice

Pseudomonas aeruginosa [14] = assay: Protection Tests in Mice; type: in vivo
Text: as §6, §7

Staphylococcus = assay: Protection Tests in Mice; type: in vivo; settings: Staphylococcus Gray, read-out: PD50
Text: as §6, §7

Acute Toxicity = settings: mouse, in vivo

SMILES: CN[C@@H]1[C@@H](O)[C@@H](O[C@H]2[C@H](N)[C@@H](O)[C@H](N)[C@@H](O[C@H]3OC(CN)=CC[C@H]3N)[C@@H]2O)OC[C@]1(C)O [Mutamicin 1]
- zone of inhibition at 10 µg/disc (Bacillus subtilis [1]): 31 mm
- zone of inhibition at 10 µg/disc (Escherichia coli [2]; ATCC10536, strain ATCC 10536, 10 Mcg. discs): 31 mm
- zone of inhibition at 10 µg/disc (Escherichia coli [2]): 11 mm
- zone of inhibition at 10 µg/disc (Escherichia coli [2]; strain 589, 10 Mcg. discs): 29 mm
- zone of inhibition at 10 µg/disc (Escherichia coli [2]; strain JR90, 10 Mcg. discs): 0 mm
- zone of inhibition at 10 µg/disc (Escherichia coli [2]; strain LA290/R55, 10 Mcg. discs): 29 mm
- zone of inhibition at 10 µg/disc (Escherichia coli [2]; strain Swidinsky 4195, 10 Mcg. discs): 28 mm
- zone of inhibition at 10 µg/disc (Escherichia coli [2]; strain W677/R55, 10 Mcg. discs): 30 mm
- zone of inhibition at 10 µg/disc (Klebsiella pneumoniae [3]; strain Ad 17): 24 mm
- zone of inhibition at 10 µg/disc (Klebsiella pneumoniae [3]; strain Ad 18): 26 mm
- zone of inhibition at 10 µg/disc (Klebsiella pneumoniae [3]; strain Georgetown 3020): 26 mm
- zone of inhibition at 10 µg/disc (Klebsiella pneumoniae [3]; strain Georgetown 3694): 26 mm
- zone of inhibition at 10 µg/disc (Providence 164): 15 mm
- zone of inhibition at 10 µg/disc (Pseudomonas aeruginosa [4]; strain Capetown 18): 19 mm
- zone of inhibition at 10 µg/disc (Pseudomonas aeruginosa [4]; strain D-2): 21 mm
- zone of inhibition at 10 µg/disc (Pseudomonas aeruginosa [4]; strain St. Michael 413): 27 mm
- zone of inhibition at 10 µg/disc (Pseudomonas aeruginosa [4]; strain St. Michael 762): 24 mm
- zone of inhibition at 10 µg/disc (Pseudomonas aeruginosa [4]; strain St. Michael 1262): 18 mm
- zone of inhibition at 10 µg/disc (Pseudomonas aeruginosa [4]; strain St. Michael 1395): 29 mm
- zone of inhibition at 10 µg/disc (Pseudomonas aeruginosa [4]; strain Stone 20): 31 mm
- zone of inhibition at 10 µg/disc (Pseudomonas aeruginosa [4]; strain Stone 39): 29 mm
- zone of inhibition at 10 µg/disc (Pseudomonas aeruginosa [4]; strain Stone 130): 14 mm
- zone of inhibition at 10 µg/disc (Pseudomonas aeruginosa [4]; strain Stone 138): 15 mm
- zone of inhibition at 10 µg/disc (Staphylococcus aureus [5]; ATCC6538P, strain ATCC 6538P): 26 mm
- zone of inhibition at 10 µg/disc (Staphylococcus aureus [5]; strain 59N): 26 mm
- zone of inhibition at 10 µg/disc (Staphylococcus aureus [5]; strain Wood): 28 mm
- zone of inhibition at 10 µg/disc (Staphylococcus aureus [5]; strain Ziegler): 25 mm
- zone of inhibition at 10 µg/disc (Streptococcus pyogenes [6]; strain B-Cruz): 17 mm
- zone of inhibition at 10 µg/disc (Streptococcus pyogenes [6]; strain C): 13 mm
- MIC (Aspergillus niger): > 10 µg/mL
- MIC (Bacillus subtilis [7]): 0.03 µg/mL (≈ 0.0647 µM)
- MIC (Candida albicans): > 25 µg/mL
- MIC (Escherichia coli [8]; ATCC10536, pH 7.2, strain ATCC 10536): 0.3 µg/mL (≈ 0.647 µM)
- MIC (Escherichia coli [8]; pH 7.2, strain Baker 2): 3 µg/mL (≈ 6.47 µM)
- MIC (Escherichia coli [8]; pH 7.2, strain Fl4-Bk): 3 µg/mL (≈ 6.47 µM)
- MIC (Escherichia coli [8]; pH 7.2, strain Genta. adenyl LA290-R55): 3 µg/mL (≈ 6.47 µM)
- MIC (Escherichia coli [8]; pH 7.2, strain Genta. adenyl W677/R55): 0.8 µg/mL (≈ 1.73 µM)
- MIC (Escherichia coli [8]; pH 7.2, strain Kana. phosphor. 589): 3 µg/mL (≈ 6.47 µM)
- MIC (Escherichia coli [8]; pH 7.2, strain Kana. phosphor. C-13): 3 µg/mL (≈ 6.47 µM)
- MIC (Escherichia coli [8]; pH 7.2, strain Tobra. R 4195): 3 µg/mL (≈ 6.47 µM)
- MIC (Klebsiella pneumoniae [9]; pH 7.2, strain Ad 18): 0.3 µg/mL (≈ 0.647 µM)
- MIC (Klebsiella pneumoniae [9]; pH 7.2, strain Genta. adenyl 121): 3 µg/mL (≈ 6.47 µM)
- MIC (Klebsiella pneumoniae [9]; pH 7.2, strain Genta. adenyl 3020): 0.3 µg/mL (≈ 0.647 µM)
- MIC (Klebsiella pneumoniae [9]; pH 7.2, strain Genta. adenyl 3694): 0.3 µg/mL (≈ 0.647 µM)
- MIC (Klebsiella pneumoniae [9]; pH 7.2, strain Kana. phos. Ad 22): 0.3 µg/mL (≈ 0.647 µM)
- MIC (Proteus rettgeri): 3 µg/mL (≈ 6.47 µM)
- MIC (Providence): > 25 µg/mL
- MIC (Pseudomonas aeruginosa [10]; pH 7.2): > 25 µg/mL
- MIC (Pseudomonas aeruginosa [10]; pH 7.2, strain 762, Mueller-Hinton Broth pH 7.2, read-out: MIC): 3 µg/mL (≈ 6.47 µM)
- MIC (Pseudomonas aeruginosa [10]; pH 7.2, strain 1262, Mueller-Hinton Broth pH 7.2, read-out: MIC): 3 µg/mL (≈ 6.47 µM)
- MIC (Pseudomonas aeruginosa [10]; pH 7.2, strain 1395, Mueller-Hinton Broth pH 7.2, read-out: MIC): 3 µg/mL (≈ 6.47 µM)
- MIC (Pseudomonas aeruginosa [10]; pH 7.2, strain D-2, Mueller-Hinton Broth pH 7.2, read-out: MIC): 0.8 µg/mL (≈ 1.73 µM)
- MIC (Pseudomonas aeruginosa [10]; pH 7.2, strain Genta. acetyl Capetown 18, Mueller-Hinton Broth pH 7.2, read-out: MIC): 7.5 µg/mL (≈ 16.2 µM)
- MIC (Pseudomonas aeruginosa [10]; pH 7.2, strain Genta. acetyl Stone 130, Mueller-Hinton Broth pH 7.2, read-out: MIC): 17.5 µg/mL (≈ 37.8 µM)
- MIC (Pseudomonas aeruginosa [10]; pH 7.2, strain NRRL B3223, Mueller-Hinton Broth pH 7.2, read-out: MIC): 0.3 µg/mL (≈ 0.647 µM)
- MIC (Pseudomonas aeruginosa [10]; pH 7.2, strain Stone 20, Mueller-Hinton Broth pH 7.2, read-out: MIC): 3 µg/mL (≈ 6.47 µM)
- MIC (Pseudomonas aeruginosa [10]; pH 7.2, strain Stone 39, Mueller-Hinton Broth pH 7.2, read-out: MIC): 3 µg/mL (≈ 6.47 µM)
- MIC (Pseudomonas aeruginosa [10]; pH 7.2, strain Stone 138, Mueller-Hinton Broth pH 7.2, read-out: MIC): 17.5 µg/mL (≈ 37.8 µM)
- MIC (Salmonella typhimurium): 3 µg/mL (≈ 6.47 µM)
- MIC (Serratia): 0.8 µg/mL (≈ 1.73 µM)
- MIC (Staphylococcus aureus [11]; ATCC6538P, pH 7.2, strain ATCC 6538P): 0.3 µg/mL (≈ 0.647 µM)
- MIC (Staphylococcus aureus [11]; pH 7.2, strain 59N): 0.3 µg/mL (≈ 0.647 µM)
- MIC (Staphylococcus aureus [11]; pH 7.2, strain 1118): 3 µg/mL (≈ 6.47 µM)
- MIC (Staphylococcus aureus [11]; pH 7.2, strain Grey): 3 µg/mL (≈ 6.47 µM)
- MIC (Staphylococcus aureus [11]; pH 7.2, strain Wood): 0.08 µg/mL (≈ 0.173 µM)
- MIC (Staphylococcus aureus [11]; pH 7.2, strain Ziegler): 0.08 µg/mL (≈ 0.173 µM)
- MIC (Streptococcus pyogenes [12]; pH 7.2, strain 27): 7.5 µg/mL (≈ 16.2 µM)
- MIC (Streptococcus pyogenes [12]; pH 7.2, strain Alvarez): 7.5 µg/mL (≈ 16.2 µM)
- MIC (Streptococcus pyogenes [12]; pH 7.2, strain C): 3 µg/mL (≈ 6.47 µM)
- MIC (Streptococcus pyogenes [12]; pH 7.2, strain Cruz): 3 µg/mL (≈ 6.47 µM)
- MIC (Streptococcus pyogenes [12]; pH 7.2, strain Karipeds): 3 µg/mL (≈ 6.47 µM)
- MIC (Streptococcus pyogenes [12]; pH 7.2, strain Labay): 7.5 µg/mL (≈ 16.2 µM)
- MIC (Trichophyton rubrum): > 10 µg/mL
- ED50 (Escherichia coli [13]; Escherichia coli 6922, read-out: PD50): 2.5 mg/kg
- ED50 (Escherichia coli [13]; Escherichia coli Sc., read-out: PD50): 5 mg/kg
- ED50 (Pseudomonas aeruginosa [14]; Pseudomonas aeruginosa 2552, read-out: PD50): 15.3 mg/kg
- ED50 (Pseudomonas aeruginosa [14]; Pseudomonas aeruginosa 2557, read-out: PD50): 17.1 mg/kg
- ED50 (Pseudomonas aeruginosa [14]; sc, Pseudomonas aeruginosa Sc., read-out: PD50): 2.5 mg/kg
- ED50 (Staphylococcus): 6 mg/kg
- LD50 (Acute Toxicity; ip): > 700 mg/kg
- LD50 (Acute Toxicity; iv): 110 mg/kg
